The results in this text go back to patent US9458463B2, “Method for treatment of diabetes by a small molecule inhibitor for GRK5” (MAX-PLANCK-GESELLSCHAFT ZUR FÖRDERUNG DER WISSENSCHAFTEN …, priority 2010, dated 2016).

Values joined by “and” are separate entries in the source; they are usually repeats but may differ in a detail not shown here. Identical values can stand only once.

Assay [1] concerns matured C2C12 myotubes. Put plainly: 2-NBDG uptake in matured C2C12 myotubes. The settings on record: relative to DMSO = 1; n = 2. It is filed as cell-based, mouse. The text has this: (§1) Inhibition of GRK5 led to an increased uptake of the fluorescent glucose analogue 2-NBDG in matured C2C12 myotubes (FIG. 20) and 3T3-L1 adipocytes (FIG. 21) for all five compounds (summarized in table 7). In line with C2C12 cells, the matured myotubes display an increase 2-NBDG uptake after inhibition of GRK5 by compounds 1-5.

The target of assay [2] is T1, full length GRK5 (Homo sapiens, UniProt P34947).
T1 construct: 6/2 fold concentrated full length GRK5 (Millipore, #14-714) in reaction buffer; purchased Millipore 14-714
T1 sequence (P34947 whole entry): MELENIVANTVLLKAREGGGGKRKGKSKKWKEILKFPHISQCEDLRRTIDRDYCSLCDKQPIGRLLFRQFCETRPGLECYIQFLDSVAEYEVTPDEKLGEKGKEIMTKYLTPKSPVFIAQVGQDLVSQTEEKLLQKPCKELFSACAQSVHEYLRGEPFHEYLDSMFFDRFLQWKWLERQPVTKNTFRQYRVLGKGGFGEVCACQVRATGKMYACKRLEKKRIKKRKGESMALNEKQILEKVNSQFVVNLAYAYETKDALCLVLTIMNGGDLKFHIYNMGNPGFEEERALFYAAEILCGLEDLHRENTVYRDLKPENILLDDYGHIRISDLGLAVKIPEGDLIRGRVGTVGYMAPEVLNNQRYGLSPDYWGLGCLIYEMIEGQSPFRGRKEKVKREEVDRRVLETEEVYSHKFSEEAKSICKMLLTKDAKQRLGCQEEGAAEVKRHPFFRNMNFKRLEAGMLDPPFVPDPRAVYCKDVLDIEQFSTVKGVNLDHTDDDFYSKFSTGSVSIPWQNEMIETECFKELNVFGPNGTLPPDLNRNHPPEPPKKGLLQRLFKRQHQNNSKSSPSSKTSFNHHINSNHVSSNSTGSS
Put plainly: GRK5 kinase activity assay, ADP Glo Kinase Assay technology (Promega). Particulars: primary screen, final assay concentration 100 μM. It is filed as biochemical. A digest of the protocol: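 Casein (10 μM) phosphorylation with 100 μM ATP in 20 mM MES pH 6.0, 1 mM DTT, 10 mM MgCl2, 0.01% Tween20, 120 min at room temperature; ADP quantified by ADP-Glo luminescence.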
A general note: In ADP-Glo the light output rises with the ADP produced.

The subject of assay [3] is beta-TC6 insulinoma cells. Put plainly: Insulin release by beta-TC6 cells, rat/mouse insulin ELISA, high glucose. The class given is cell-based.
In assay [4] the test system is C2C12 cells. Briefly: 2-NBDG glucose uptake in C2C12 cells (flow cytometry). It is filed as cell-based, mouse. The settings on record: C2C12 cells; n = 3; FIG. 17. As for the experimental part: (§2) 2-NBDG is a fluorescently-labeled deoxyglucose analog that is commonly used to directly monitor glucose uptake by living cells. For 2-NBDG detection, cells were cultured for 1 h together with 5 μM of a small molecule in glucose free media supplied with 100 μM 2-NBDG at 37° C. before collecting. Furthermore, as internal controls, samples of glucose free media, rFc4espectively glucose free media with test compound, were tested. Subsequently, cells were washed, trypsinized and harvested in ice-cold PBS before centrifuged at 1.6×10^3 rpm at 4° C. Cells were analyzed by flow cytometry (FACS Calibur, BD Bioscience, respectively a BD Accuri® C6 Flow Cytometer).
as §2, with “an inventive compound” for “a small molecule”, “media,” for “media, rFc4espectively”, “compound, respectively glucose free media supplied with 100 μM 2-NBDG” for “compound,”

Assay [5] has as its system beta TC6 cells. Briefly: 2-NBDG uptake in beta TC6 cells. It is filed as cell-based, mouse. The settings on record: n = 3, FIG. 18.
Assay [6] deals with 3T3-L1 adipocytes. Briefly: 2-NBDG uptake in matured 3T3-L1 adipocytes. The class given is cell-based. Particulars: relative to DMSO = 1; n = 2.
Source text: as §1

The test system of assay [7] is 3T3-L1 pre-adipocytes. Briefly: 2-NBDG uptake in 3T3-L1 pre-adipocytes. Particulars: 3T3-L1 pre-adipocytes; n = 3; FIG. 19. The class given is cell-based.

With `Nc1cccc(-c2cc3cnc(Nc4cccnc4)cc3[nH]2)c1` [C2], in assay [1], the “2-NBDG uptake Ratio, C2C12 myotubes matured” value is 2.383. Also, in assay [2], the “Inhibition of Grk5 [%]” value was 60.0%. Also, the “Insulin release (average, relative to DMSO = 1)” value in assay [3] (beta-TC6, 5 μM) was 2.58±0.94 and 2.58; in assay [3] (beta-TC6, 10 μM), 2.01±0.19 and 2.01. The “2-NBDG glucose uptake, Ratio (average, DMSO = 1)” value in assay [4] is 2.127; in assay [5] it was 1.529; in assay [7], 1.111. Also, the “2-NBDG uptake Ratio, 3T3-L1 adipocytes matured” value in assay [6] is reported as 2.234.
